Results taken from US20250296971A1, “GASTRIC INHIBITORY PEPTIDE RECEPTOR LIGANDS” (priority 2021, published 2025).
Like-named read-outs stand apart in the source and are kept apart here. *1 amine or outer side, *2 acyl side, *3 side chain or, on linkers, in order; H or OH if unused. Where a SMILES comes first, the peptide text is derived from it. Bridges are numbered along the chain shown (N, C = ends). [ ]: non-standard residue; d: D form. The star is where a group is joined. X13 = O=C(CN1CCN2CCN3CCN(CC1)CC(=O)[O][Lu]([O]C(=O)C2)[O]C(=O)C3)NCCCOCCOCCOCCCN*; NH(1-deoxy-D-glucityl) = OC[C@@H](O)[C@@H](O)[C@H](O)[C@@H](O)CN*; DOTA = O=C(O)CN1CCN(CC(=O)O)CCN(CC(=O)*)CCN(CC(=O)O)CC1; Trp(5-Cl) = N[C@@H](Cc1c[nH]c2ccc(Cl)cc12)C(=O)O; Pyridine(2,6-diCH2) = c1cc(C[*:1])nc(C[*:2])c1; Pro(4R-NH2) = N[C@H]1CN[C@H](C(=O)O)C1; Glutaryl = O=C(CCCC(=O)[*:2])[*:1]; X6 = c1cc(CSCCN[*:2])nc(C[*:1])c1; X7 = c1cc(CSCCN[*:2])cc(C[*:1])c1; Hyp = O=C(O)[C@@H]1C[C@@H](O)CN1; X1 = O=C(CN1CCC(N[*:1])CC1)[*:2]; Suc = O=C(CCC(=O)[*:2])[*:1]; hSer = N[C@@H](CCO)C(=O)O; NHCH(CH2OH)2 = OCC(CO)N*; Api = NC1(C(=O)O)CCNCC1; Thp = NC1(C(=O)O)CCOCC1; Aib = CC(C)(N)C(=O)O

Columns and labels:
[1] = molecular target: T1, GIPR (CHO-K1-hGIPR cells) (Homo sapiens, UniProt P48546); assay: FACS binding assay
T1 construct: host or cells: CHO-K1
T1 sequence (P48546 22-466): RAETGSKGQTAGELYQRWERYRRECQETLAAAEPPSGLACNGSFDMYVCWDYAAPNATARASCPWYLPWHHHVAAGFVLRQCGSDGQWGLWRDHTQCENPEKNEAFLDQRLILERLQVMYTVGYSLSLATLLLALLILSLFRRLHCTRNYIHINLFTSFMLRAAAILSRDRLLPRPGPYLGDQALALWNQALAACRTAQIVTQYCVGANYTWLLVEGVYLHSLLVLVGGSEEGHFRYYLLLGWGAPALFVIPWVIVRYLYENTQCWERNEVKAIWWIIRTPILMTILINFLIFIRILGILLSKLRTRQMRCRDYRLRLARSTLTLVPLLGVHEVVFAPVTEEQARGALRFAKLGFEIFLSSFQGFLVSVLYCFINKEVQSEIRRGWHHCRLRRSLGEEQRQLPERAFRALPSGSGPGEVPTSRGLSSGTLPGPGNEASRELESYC
In short: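 Read-out: flow cytometric median fluorescence intensity, APC/Cy5 channel, plotted vs peptide conc.; 4PL fit → EC50/pEC50 or IC50/pIC50. Cells: CHO-K1-hGIPR, Accutase-detached, 500.000/mL in PBS + 1% FCS. Detection: APC-streptavidin 1 μg/mL, 30 min, on ice.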

[2] = molecular target: T2, human GIP receptor (bioGIPR) (Homo sapiens, UniProt P48546); assay: Surface plasmon resonance (SPR) based binding assay; settings: for t1/2 Category: SPR dissociation half-life
T2 construct: Biotinylate extracellular of the human GIP receptor (bioGIPR, Proteros biostructures GmbH, lot #02/2b); purchased Proteros biostructures GmbH lot #02/2b
T2 sequence (P48546 22-138 limits assumed): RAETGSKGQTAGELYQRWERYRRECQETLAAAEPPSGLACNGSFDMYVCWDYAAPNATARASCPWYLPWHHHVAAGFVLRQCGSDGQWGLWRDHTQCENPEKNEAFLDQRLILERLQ
Procedure: Surface plasmon resonance (SPR) studies were performed using a Biacore™ T200 SPR system. Briefly, polarized light is directed towards a gold-labeled sensor surface, and minimum intensity reflected light is detected. The angle of reflected light changes as molecules bind and dissociate.
Biotinylate extracellular of the human GIP receptor (bioGIPR, Proteros biostructures GmbH, lot #02/2b) was captured on a biotin capture chip (Biotin CAPture Kit, Series S, GE Healthcare, Cat #28-9202-34). bioGIPR was diluted in Running Buffer (HBST from Xantec Analytics; […], 0.05% Tween20, 0.1% DMSO) to a final concentration 100 nM and than flushed over the Fc-capture chip to immobilized ˜3500 RUs.
Stock solutions of test compounds were prepared by dissolving each compound in DMSO. DMSO stock solution were diluted 1:1000 in Running Buffer without DMSO. Further sequential dilutions were made with Running Buffer containing 0.1% DMSO. SPR binding analyses were performed in Single Cycle Kinetic (SCK) mode at 25° C. Flow cell without immobilized bioGIPR served as reference flowcell. After each SCK run, bioGIRP and the Biotin Capture Reagent was removed with Regeneration Solution (6 M Guanidium, 0.75 M NaOH).
In between every three SCK measurements, a blank run with Running Buffer instead of test compound was included to correct for baseline drifts (double blanking method).
For each test compound, SPR raw data in the form of resonance units (RU) were plotted as sensorgrams using the Biacore™ T200 control software. The signal from the blank sensorgram was subtracted from that of the test compound sensorgram (blank corrected). The blank corrected sensorgram was corrected for baseline drift by subtracting the sensorgram of a SCK run without the test compound (running buffer only). The association rate (kon), dissociation rate (koff), dissociation constant (KD), and t1/2 were calculated from blank corrected SPR data using the 1:1 Langmuir binding model from the Biacore™ T200 evaluation software. Raw data and fit results were imported as text files in IDBS. The pKD value (negative decadic logarithm of dissociation constant) was calculated in the IDBS excel template.

[3] = competition with 20 nM GIP-057, 4° C., 1 hour, read-out: pIC50 Category (converted)
[4] = Single Cycle Kinetic mode, 25° C.
[5] = SPR, Single Cycle Kinetic mode, 25° C., 1:1 Langmuir binding model, read-out: pKD Category (converted)

Compound	IC50 [1, 3]	t1/2 Category [2, 4]	Kd [2, 5]	IC50 ([1]; pIC50 Category, competition with 20 nM GIP-057, 4° C., 1 hour)	Kd [2]	IC50 ([1]; competition with 20 nM GIP-057, 4° C. for 1 hour, read-out: pIC50 Category (converted))
CC[C@H](C)[C@@H]1NC(=O)[C@H](CC(C)C)NC(=O)C2(CCN(C(=O)CN3CCN(CC(=O)O)CCN(CC(=O)O)CCN(CC(=O)O)CC3)CC2)NC(=O)[C@@H](NC(=O)[C@@H](CC(C)C)NC(=O)[C@H](CCC(=O)O)NC(=O)[C@@H]2C[C@@H](O)CN2C(=O)[C@H](Cc2c[nH]c3ccc(Cl)cc23)NC(=O)[C@H](Cc2c[nH]c3ccccc23)NC(=O)[C@H](CCO)NC(=O)CN2CCC(NC(=O)CCCC(=O)NC[C@H](O)[C@@H](O)[C@H](O)[C@H](O)CO)CC2)CSCc2cccc(n2)CSC[C@@H](C(=O)NC2CCN(CC(=O)N[C@H](CCC(=O)NC[C@H](O)[C@@H](O)[C@H](O)[C@H](O)CO)C(N)=O)CC2)NC1=O [GIP-049, AGLU-Glutar-APAc-Hse-Trp-5Clw-Hyp-Glu-leu-[Cys(2Lut)-Apc(DOTA)-Leu-Ile-Cys]-APAc-glu(AGLU)-NH2] ({NH(1-deoxy-D-glucityl)-Glutaryl}-[X1][hSer]W[Trp(5-Cl)][Hyp]E[dL]C[Api](DOTA)LIC[X1][dE](NH(1-deoxy-D-glucityl))-NH2; linker 8-12 via Pyridine(2,6-diCH2))	10 to 79.4 nM	D (t1/2<2.0 min)	1 to 7.94 nM	–	–	–
CC[C@H](C)[C@@H]1NC(=O)[C@H](CC(C)C)NC(=O)C(C)(C)NC(=O)[C@@H](NC(=O)[C@@H](CC(C)C)NC(=O)[C@H](CCC(=O)O)NC(=O)[C@@H]2CCCN2C(=O)[C@H](Cc2c[nH]c3ccc(Cl)cc23)NC(=O)[C@H](Cc2c[nH]c3ccccc23)NC(=O)[C@H](CC(=O)O)NC(=O)CCC(=O)NCCCOCCOCCOCCCNC(=O)CN2CCN3CCN4CCN(CC2)CC(=O)[O][Lu]([O]C(=O)C3)[O]C(=O)C4)CSCc2cccc(c2)CSCCNC1=O [GIP-167, LuDOTA-Ttds-Asp-Trp-5Clw-Pro-Glu-leu-[Cys(3MeBn)-Aib-Leu-Ile-AET]] ({X13-Suc}-DW[Trp(5-Cl)]PE[dL]C[Aib]LI; linker 7-C via X7)	–	A (t1/2 values>15 min)	–	< 10 nM	< 1 nM	–
CC[C@H](C)[C@@H]1NC(=O)[C@H](CC(C)C)NC(=O)C2(CCN(C(=O)CN3CCN(CC(=O)O)CCN(CC(=O)O)CCN(CC(=O)O)CC3)CC2)NC(=O)[C@@H](NC(=O)[C@@H](CC(C)C)NC(=O)[C@H](CCC(=O)O)NC(=O)[C@@H]2C[C@@H](N)CN2C(=O)[C@H](Cc2c[nH]c3ccc(Cl)cc23)NC(=O)[C@H](Cc2c[nH]c3ccccc23)NC(=O)[C@H](CC(=O)O)NC(=O)CCCC(=O)NC[C@H](O)[C@@H](O)[C@H](O)[C@H](O)CO)CSCc2cccc(n2)CSC[C@@H](C(=O)NC2CCN(CC(=O)N[C@H](CCC(=O)NC(CO)CO)C(=O)NC(CO)CO)CC2)NC1=O [GIP-372, AGLU-Glutar-Asp-Trp-5Clw-Tap-Glu-leu-[Cys(2Lut)-Apc(DOTA)-Leu-Ile-Cys]-APAc-GLUSEROL] ({NH(1-deoxy-D-glucityl)-Glutaryl}-DW[Trp(5-Cl)][Pro(4R-NH2)]E[dL]C[Api](DOTA)LIC[X1][dE](NHCH(CH2OH)2)-{NHCH(CH2OH)2}; linker 7-11 via Pyridine(2,6-diCH2))	–	A (t1/2 values>15 min)	< 1 nM	–	–	< 10 nM
CC[C@H](C)[C@@H]1NC(=O)[C@H](CC(C)C)NC(=O)C2(CCOCC2)NC(=O)[C@@H](NC(=O)[C@@H](CC(C)C)NC(=O)[C@H](CCC(=O)O)NC(=O)[C@@H]2C[C@@H](O)CN2C(=O)[C@H](Cc2c[nH]c3ccc(Cl)cc23)NC(=O)[C@H](Cc2c[nH]c3ccccc23)NC(=O)[C@H](CC(=O)O)NC(=O)CN2CCC(NC(=O)CN3CCN(CC(=O)O)CCN(CC(=O)O)CCN(CC(=O)O)CC3)CC2)CSCc2cccc(n2)CSCCNC1=O [GIP-103, DOTA-APAc-Asp-Trp-5Clw-Hyp-Glu-leu-[Cys(2Lut)-Thp-Leu-Ile-AET]] ({DOTA}-[X1]DW[Trp(5-Cl)][Hyp]E[dL]C[Thp]LI; linker 8-C via X6)	< 10 nM	A (t1/2 values>15 min)	< 1 nM	–	–	–
